Source: ChEMBL document CHEMBL4837250, “Discovery of LYC-55716: A Potent, Selective, and Orally Bioavailable Retinoic Acid Receptor-Related Orphan Receptor-γ (RORγ) Agonist for Use in Treating Cancer” (J Med Chem, 2021)
Converted amounts (≈) assume the structure as drawn.

What was measured:
[1] = in vivo; conditions: CD1, mouse, plasma, po, 10 mg/kg
[2] = target: CYP3A4 (Homo sapiens, UniProt P08684); experiment: in vitro; conditions: probe testosterone
Description: Inhibition of CYP3A4 (unknown origin) assessed as oxidation of testosterone at 10 uM

[3] = in vivo; conditions: CD1, mouse, po, 10 mg/kg
[4] = physchem; conditions: PBS buffer, pH 7.4
Description: Solubility of the compound in pH 7.4 PBS buffer

[5] = in vivo; conditions: CD1, mouse, po, 10 mg/kg; remark: listed apart in the source
Description: Half life in CD1 mouse at 10 mg/kg, po

[6] = in vitro; conditions: human, hepatocytes
[7] = in vivo; conditions: CD1, mouse, po, 10 mg/kg; remark: listed apart in the source
[8] = target: CYP2D6 (Homo sapiens, UniProt P10635); experiment: in vitro; conditions: probe testosterone
Description: Inhibition of CYP2D6 (unknown origin) assessed as oxidation of testosterone at 10 uM

[9] = target: T1, Nuclear receptor ROR-gamma (Homo sapiens, UniProt P51449)
T1 sequence (P51449 whole entry): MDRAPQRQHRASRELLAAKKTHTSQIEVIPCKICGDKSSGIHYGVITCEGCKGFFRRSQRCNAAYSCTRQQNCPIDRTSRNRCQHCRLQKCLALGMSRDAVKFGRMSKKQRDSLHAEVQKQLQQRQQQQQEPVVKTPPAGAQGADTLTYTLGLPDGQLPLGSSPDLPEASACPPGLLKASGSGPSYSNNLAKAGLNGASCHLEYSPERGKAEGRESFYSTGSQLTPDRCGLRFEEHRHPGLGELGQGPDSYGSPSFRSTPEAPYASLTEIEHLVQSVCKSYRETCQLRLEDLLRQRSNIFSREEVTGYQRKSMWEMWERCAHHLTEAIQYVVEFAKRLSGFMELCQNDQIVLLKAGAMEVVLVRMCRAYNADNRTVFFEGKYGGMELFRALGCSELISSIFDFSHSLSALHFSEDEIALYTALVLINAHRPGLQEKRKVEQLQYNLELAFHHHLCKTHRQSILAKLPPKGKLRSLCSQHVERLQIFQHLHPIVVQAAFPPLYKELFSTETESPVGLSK
Description: Agonist activity at human ROR-gamma LBD expressed in HEK293 cells assessed as transcriptional activity in presence of ursolic acid by Gal4-luciferase reporter assay

[10] = target: T2, Nuclear receptor subfamily 1 group I member 2 (Homo sapiens, UniProt O75469)
T2 sequence (O75469 whole entry): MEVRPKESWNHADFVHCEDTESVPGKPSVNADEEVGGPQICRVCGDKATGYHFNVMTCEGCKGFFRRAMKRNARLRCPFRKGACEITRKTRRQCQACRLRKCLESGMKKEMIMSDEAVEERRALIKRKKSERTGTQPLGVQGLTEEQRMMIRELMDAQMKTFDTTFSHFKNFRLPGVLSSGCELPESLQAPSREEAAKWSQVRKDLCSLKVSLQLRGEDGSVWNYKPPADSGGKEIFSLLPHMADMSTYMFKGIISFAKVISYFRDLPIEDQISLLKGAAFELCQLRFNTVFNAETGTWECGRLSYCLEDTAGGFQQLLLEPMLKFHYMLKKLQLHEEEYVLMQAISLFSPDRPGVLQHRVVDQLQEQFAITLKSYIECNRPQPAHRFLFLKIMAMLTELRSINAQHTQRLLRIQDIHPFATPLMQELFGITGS
Description: Agonist activity at human PXR-gamma expressed in HEK293 cells assessed as transcriptional activity in presence of ursolic acid by Gal4-luciferase reporter assay

[11] = in vitro; conditions: human, hepatocytes; remark: listed apart in the source
Description: Clearance in human hepatocyte measured per 10^6 cells

[12] = target: T1, Nuclear receptor ROR-gamma; remark: listed apart in the source
Description: Agonist activity at human His-tagged RORgamma-LBD expressed in Sf9 cells assessed as inhibition of N-terminal biotinylated co-activator SRC1 recruitment in presence of ursolic acid measured after 60 mins by FRET assay

[13] = in vivo; conditions: Sprague-Dawley, rat, iv, 1 mg/kg
Description: Volume of distribution in Sprague-Dawley rat at 1 mg/kg, iv

[14] = cells; conditions: Mus musculus, C57/BL6
Description: In vivo agonist activity at RORgamma in C57/BL6 mouse assessed as plasma concentration required to increase RORgamma targeted gene expression in isolated thymocytes

[15] = in vivo; conditions: Sprague-Dawley, rat, iv, 1 mg/kg; remark: listed apart in the source
Description: Half life in Sprague-Dawley rat at 1 mg/kg, iv

[16] = test system: MC-38; experiment: animal or person; conditions: Mus musculus, MC-38, po, 600 h, read-out: TGI
Description: Antitumor activity against mouse MC38 cells implanted in C57/BL6 mouse assessed as tumor growth inhibition at 30 mg/kg, po twice daily measured up to 25 days

[17] = in vitro; conditions: mouse, plasma
Description: Plasma protein binding in mouse

[18] = in vivo; conditions: cynomolgus monkey, iv, 1 mg/kg
Description: Half life in cynomolgus monkey rat at 1 mg/kg, iv

[19] = in vitro; conditions: human, plasma
Description: Plasma protein binding in human

[20] = target: T3, Nuclear receptor ROR-beta (Homo sapiens, UniProt Q92753)
T3 sequence (Q92753 whole entry): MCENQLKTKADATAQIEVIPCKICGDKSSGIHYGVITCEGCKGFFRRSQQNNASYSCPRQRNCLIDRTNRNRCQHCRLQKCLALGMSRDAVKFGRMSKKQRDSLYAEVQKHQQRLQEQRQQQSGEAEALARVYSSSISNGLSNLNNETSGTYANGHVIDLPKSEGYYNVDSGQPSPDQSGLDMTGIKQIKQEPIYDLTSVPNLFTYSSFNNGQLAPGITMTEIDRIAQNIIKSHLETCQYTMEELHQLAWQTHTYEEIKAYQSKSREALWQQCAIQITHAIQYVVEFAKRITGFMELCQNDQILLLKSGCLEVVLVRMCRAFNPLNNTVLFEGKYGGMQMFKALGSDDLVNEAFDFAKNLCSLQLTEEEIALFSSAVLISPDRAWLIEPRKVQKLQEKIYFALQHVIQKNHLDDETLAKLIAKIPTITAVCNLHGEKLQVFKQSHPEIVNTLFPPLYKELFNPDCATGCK
Description: Agonist activity at RORbeta (unknown origin)

[21] = in vivo; conditions: cynomolgus monkey, po, at 30 to 300 mg/kg
[22] = in vivo; conditions: cynomolgus monkey, iv, 1 mg/kg; remark: listed apart in the source
Description: Volume of distribution in cynomolgus monkey rat at 1 mg/kg, iv

[23] = target: hERG (KCNH2) (Homo sapiens, UniProt Q12809); experiment: in vitro
Description: Inhibition of human ERG by patch-clamp assay

[24] = in vivo; conditions: Sprague-Dawley, rat, po, at 30 to 300 mg/kg
[25] = target: T4, Nuclear receptor ROR-alpha (Homo sapiens, UniProt P35398)
T4 sequence (P35398 whole entry): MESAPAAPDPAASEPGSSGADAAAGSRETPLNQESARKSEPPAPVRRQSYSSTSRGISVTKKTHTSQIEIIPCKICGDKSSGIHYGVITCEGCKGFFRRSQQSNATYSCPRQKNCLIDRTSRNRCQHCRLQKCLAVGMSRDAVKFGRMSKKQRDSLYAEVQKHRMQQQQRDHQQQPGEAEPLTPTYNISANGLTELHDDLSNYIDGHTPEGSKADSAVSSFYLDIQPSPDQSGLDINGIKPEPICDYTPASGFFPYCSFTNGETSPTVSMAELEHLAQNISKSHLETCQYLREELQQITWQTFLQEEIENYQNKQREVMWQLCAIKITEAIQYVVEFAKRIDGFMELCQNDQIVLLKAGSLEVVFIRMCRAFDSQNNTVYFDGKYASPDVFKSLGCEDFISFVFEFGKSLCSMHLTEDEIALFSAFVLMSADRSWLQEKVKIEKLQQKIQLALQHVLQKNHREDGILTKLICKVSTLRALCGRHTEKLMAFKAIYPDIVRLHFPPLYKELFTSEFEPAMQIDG
Description: Agonist activity at RORalpha (unknown origin)

Sequence of CYP3A4 (P08684 whole entry): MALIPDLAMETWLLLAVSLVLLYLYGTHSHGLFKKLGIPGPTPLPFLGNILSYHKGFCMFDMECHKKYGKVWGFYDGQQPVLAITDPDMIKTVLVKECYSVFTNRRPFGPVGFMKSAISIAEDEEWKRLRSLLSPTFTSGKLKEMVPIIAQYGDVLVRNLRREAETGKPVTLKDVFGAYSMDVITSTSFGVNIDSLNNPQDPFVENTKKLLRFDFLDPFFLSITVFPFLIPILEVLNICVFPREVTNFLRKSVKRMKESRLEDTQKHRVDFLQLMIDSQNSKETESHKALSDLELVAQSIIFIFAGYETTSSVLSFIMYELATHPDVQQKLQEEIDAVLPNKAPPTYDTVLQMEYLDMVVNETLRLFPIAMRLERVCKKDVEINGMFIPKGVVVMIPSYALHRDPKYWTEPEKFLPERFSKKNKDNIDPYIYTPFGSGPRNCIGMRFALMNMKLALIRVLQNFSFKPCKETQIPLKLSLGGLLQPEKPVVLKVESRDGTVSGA
Sequence of CYP2D6 (P10635 whole entry): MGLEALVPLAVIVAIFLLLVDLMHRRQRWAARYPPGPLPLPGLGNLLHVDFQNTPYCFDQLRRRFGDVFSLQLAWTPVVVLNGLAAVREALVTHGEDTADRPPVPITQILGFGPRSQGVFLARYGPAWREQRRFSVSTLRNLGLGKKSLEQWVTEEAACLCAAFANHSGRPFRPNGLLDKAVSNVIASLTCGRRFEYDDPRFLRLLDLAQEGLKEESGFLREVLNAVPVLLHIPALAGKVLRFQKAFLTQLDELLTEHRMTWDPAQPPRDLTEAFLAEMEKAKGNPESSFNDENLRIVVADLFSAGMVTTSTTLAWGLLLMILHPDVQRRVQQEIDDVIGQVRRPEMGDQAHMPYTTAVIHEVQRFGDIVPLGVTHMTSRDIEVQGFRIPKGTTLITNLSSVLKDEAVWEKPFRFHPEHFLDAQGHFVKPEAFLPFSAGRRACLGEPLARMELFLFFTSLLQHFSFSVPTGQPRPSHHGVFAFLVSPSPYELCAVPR
Sequence of hERG (KCNH2) (Q12809 whole entry): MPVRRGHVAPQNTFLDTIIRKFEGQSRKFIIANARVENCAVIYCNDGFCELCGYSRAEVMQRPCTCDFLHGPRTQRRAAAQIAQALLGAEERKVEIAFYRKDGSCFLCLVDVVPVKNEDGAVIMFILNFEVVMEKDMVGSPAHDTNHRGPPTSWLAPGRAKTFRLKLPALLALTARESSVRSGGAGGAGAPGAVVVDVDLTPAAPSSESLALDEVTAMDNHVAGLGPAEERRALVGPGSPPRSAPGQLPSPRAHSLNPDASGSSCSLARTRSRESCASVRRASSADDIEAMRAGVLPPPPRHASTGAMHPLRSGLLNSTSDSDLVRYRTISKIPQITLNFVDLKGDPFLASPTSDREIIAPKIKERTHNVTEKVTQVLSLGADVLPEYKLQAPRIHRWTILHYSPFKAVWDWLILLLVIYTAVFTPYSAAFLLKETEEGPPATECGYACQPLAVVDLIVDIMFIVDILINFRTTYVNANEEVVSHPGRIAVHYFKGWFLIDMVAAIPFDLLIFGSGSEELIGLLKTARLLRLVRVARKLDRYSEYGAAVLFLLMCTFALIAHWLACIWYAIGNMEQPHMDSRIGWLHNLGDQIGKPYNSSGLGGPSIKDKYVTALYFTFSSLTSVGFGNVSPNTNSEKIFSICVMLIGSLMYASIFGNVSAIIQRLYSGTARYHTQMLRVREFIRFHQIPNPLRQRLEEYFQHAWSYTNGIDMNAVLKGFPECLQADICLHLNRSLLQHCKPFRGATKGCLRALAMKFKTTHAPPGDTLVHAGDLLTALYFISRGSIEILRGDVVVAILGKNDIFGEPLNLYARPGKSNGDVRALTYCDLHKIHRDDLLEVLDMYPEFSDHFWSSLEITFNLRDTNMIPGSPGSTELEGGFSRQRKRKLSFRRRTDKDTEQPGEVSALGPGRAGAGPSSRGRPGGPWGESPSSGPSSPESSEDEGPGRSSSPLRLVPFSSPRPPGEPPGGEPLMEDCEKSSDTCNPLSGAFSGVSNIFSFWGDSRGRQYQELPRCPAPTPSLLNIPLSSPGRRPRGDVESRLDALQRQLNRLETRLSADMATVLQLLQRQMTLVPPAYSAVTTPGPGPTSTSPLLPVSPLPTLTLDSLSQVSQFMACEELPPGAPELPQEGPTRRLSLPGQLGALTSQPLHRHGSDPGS

SMILES | CL/F [1] | inhibition at 10 µM [2] | AUC(0-inf) [3] | solubility [4] | half-life [5] | hepatocyte CLint [6] | bioavailability [7] | inhibition at 10 µM [8] | EC50 [9] | EC50 [10] | EC50 [12] | further results
O=C(O)CC[C@H]1CN(S(=O)(=O)c2cccc(C(F)(F)F)c2)c2cc(/C=C/c3c(Cl)cccc3C(F)(F)F)ccc2O1 | 2 mL/min/kg | 8% | 71000 ng·h/mL | 15 µM (≈ 9.3 µg/mL) | 3.69 h | 20 µL/min/1e6 cells | 86% | 3% |  |  |  | 
CCOc1nn2c(c1S(=O)(=O)N1C[C@H](CCC(=O)O)Oc3ccc(/C=C(\C)c4c(F)cccc4Cl)cc31)CCCC2 | 7.8 mL/min/kg | 19% | 35600 ng·h/mL | 288 µM (≈ 174 µg/mL) | 1.66 h | 15 µL/min/1e6 cells | 100% | 6% | 199 nM | > 10000 nM |  | 
O=C(O)C1(C[C@H]2CN(S(=O)(=O)c3cccc(C(F)(F)F)c3)c3cc(-c4cc(F)cc(OC(F)F)c4)ccc3O2)COC1 | 70.2 mL/min/kg |  | 1400 ng·h/mL | 262 µM (≈ 162 µg/mL) | 2.74 h | 17 µL/min/1e6 cells | 59% |  |  |  |  | hepatocyte CLint [11]: 17 µL/min/1e6 cells
CC(C)(C[C@H]1CN(S(=O)(=O)c2cccc(C(F)(F)F)c2)c2cc(-c3cc(F)ccc3F)ccc2O1)C(=O)O | 13.2 mL/min/kg | 28% | 9820 ng·h/mL | 13 µM (≈ 7.22 µg/mL) | 7.35 h | 7.7 µL/min/1e6 cells | 78% | 6% | 344 nM | > 10000 nM | 13 nM | 
O=C(O)CC[C@H]1CN(S(=O)(=O)c2cccc(C(F)(F)F)c2)c2cc(-c3ccccc3Cl)ccc2O1 | 11.1 mL/min/kg | 20% | 11700 ng·h/mL | 243 µM (≈ 128 µg/mL) | 4.44 h | 32 µL/min/1e6 cells | 78% | 0% | 414 nM | > 10000 nM | 9 nM | 
O=C(O)CC[C@H]1CN(S(=O)(=O)c2cccc(C(F)(F)F)c2)c2cc(-c3cccc(F)c3Cl)ccc2O1 | 8.1 mL/min/kg | 11% | 19600 ng·h/mL | 247 µM (≈ 134 µg/mL) | 3.45 h | 26 µL/min/1e6 cells | 95% | 6% | 144 nM | > 10000 nM | 262 nM | 
CC(C)(C[C@H]1CN(S(=O)(=O)c2cccc(C(F)(F)F)c2)c2cc(-c3cc(F)cc(OC(F)F)c3)ccc2O1)C(=O)O [CINTIRORGON] |  | 9.5% | 3240 ng·h/mL | 10 µM (≈ 6.04 µg/mL) | 4.31 h |  | 55% | 6% |  |  |  | Vd [13]: 5.7 L/kg; EC50 [14]: 338 nM; half-life [15]: 2.8 h; inhibition in vivo at 30 mg/kg [16]: 46%; fraction unbound [17]: 0.033; half-life [18]: 6.6 h; fraction unbound [19]: 0.044; EC50 [20]: > 10000 nM; bioavailability [21]: ≥ 100%; Vd [22]: 1.42 L/kg; IC20 [23]: > 50000 nM; bioavailability [24]: ≥ 100%; EC50 [25]: > 10000 nM
